Data set [1] is described as follows: Saturated solubility of vardenafil API in water and organic-aqueous solvents (shake flask, HPLC). Format: physicochemical. Particulars: for solubility: water, pH 4, aqueous buffer, thermodynamic from solid, pH4. The protocol: For screening of various organic solvents, the solubility of vardenafil API in different % ethanol-aqueous mixtures was first investigated and compared to solubility in pure water. As disclosed herein, the solutions were prepared by the “shake flask” method. Briefly, increasing amounts of vardenafil API were added to different mixtures until saturation. The saturated organic-aqueous mixtures were adjusted for pH (at the range pH 3.5-7.5) with the use of a pH meter. The saturated solution was shaken slowly with a magnetic stirrer at room temperature or shaken rapidly several times a day for 24 hours or longer, up to 3 days. Afterwards, the solutions were filtered using the VWR 0.2 micron filter. The filtrate was then used for inspection of clarity and concentration was determined by HPLC. In addition, the saturated solubility of vardenafil various organic-aqueous solution, e.g., in glycerin (glycerol), polyethylene glycol 400 (PEG) and combination of two organic solvents were investigated. Vardenafil solubility in some other representative organic-aqueous solutions were also investigated.
The standard curves were prepared in MeOH and mixed with PBS so that the analytical matrices were the same.

Data set [2] can be described thus: Vardenafil permeability (Papp) and flux (Jss) by PAMPA. Format: in vitro ADME. The source says:
As disclosed herein, the permeability of vardenafil API in different solvents at room temperature and atmospheric pressure was screened using in vitro PAMPA. The PAMPA predicts passive absorption of drugs and is suitable for studies with many solutions including ethanol (up to concentration of 30%)(22-24). The unit of measurement is the apparent permeability (Papp) obtained at steady state, expressed as cm/second. Also another associated measurement is the maximum flux (Jss) at a particular pH, expressed as the quantity of drug across the unit area per sec, is calculated from the Papp and saturated solubility. […]
Apparent permeability coefficient (Papp) determination, expressed as cm/sec, was calculated based on the following equation at steady state (24) where • VD=volume in donor chamber • VA=volume in acceptor chamber • A=effective area of the membrane (PAMPA: 0.3 cm^2) • t=duration of the permeability study • CA=drug concentration in the acceptor well at the end of the study • CE=equilibrium concentration in both wells, and […]
Steady state flux (Jss). The Jss, expressed as ug/sec/cm^2, was calculated based on the following equation where • CD=loading concentration in the donor chamber […]

For data set [3] the following is noted: cited from earlier work; for half-life: oral, terminal half-life.
The conditions of data set [4]: cited from earlier work.
The conditions of data set [5]: cited from earlier work. This is another data set of the same source.
Data set [6] is described as follows: Saturated solubility of sildenafil in water and organic-aqueous solvents (shake flask, HPLC). Format: physicochemical. As to conditions: for solubility: water, thermodynamic from solid. The source says:
Afterwards the solution was filtered using the VWR 0.2 mcron filter.

≈ marks a conversion by molar mass, not a printed value. Counter-ions that a name gives are not always drawn. Like-named read-outs stand apart in the source and are kept apart here.

As for `CCCc1nc(C)c2c(=O)[nH]c(-c3cc(S(=O)(=O)N4CCN(CC)CC4)ccc3OCC)nn12` [vardenafil], the solubility was 18200 µg/mL in data set [1] (read-out: V(ssol)pHmax, aqueous saturated solubility at pHmax); “about 8.8 g/L” in data set [5] (pH 1); about 3000 µg/mL (≈ 6.14 mM) in data set [5] (pH 2); about 1600 µg/mL (≈ 3.27 mM) in data set [5] (pH 3); about 880 µg/mL (≈ 1.8 mM) in data set [5] (pH 4); about 160 µg/mL (≈ 0.327 mM) in data set [5] (pH 5). For the same molecule, in data set [5] (pH 6), the solubility was about 19 µg/mL (≈ 0.0389 mM). In addition, the JsspHmax in data set [2] (vardenafil aqueous, pH4) is listed as 7.74 E-05 ug/s/cm^2. Further, the “Jss(ref)” value in data set [2] (vardenafil, Solmin 20 mg/ml, IN dose 2 mg/nostril, pHmax pH4) was determined as 8.5E-05 ug/s/cm^2. The absolute bioavailability entry in data set [3] (oral administration) is on record as “about 15%”. In addition, in data set [3] (oral administration), the “mean time (Tmax) for maximum plasma concentration” value (from here on “mean time (Tmax)”) was “about 60 min”. Besides, the “log P” value in data set [4] is 3.64. The aqueous solubility entry in data set [5] (pH 4-7) was “less than 2 mg/ml”.

Take `CCCc1nc(C)c2c(=O)[nH]c(-c3cc(S(=O)(=O)N4CCN(CC)CC4)ccc3OCC)nn12` [vardenafil API, vardenafil hydrochloride trihydrate]: in data set [1] (solubilized in 12% alcohol), the time until precipitation is at most 24 h. Moreover, in data set [1] (read-out: mean saturated solubility in water), the solubility was under 20000 µg/mL.

For `CN1CC(=O)N2[C@H](c3ccc4c(c3)OCO4)c3[nH]c4ccccc4c3C[C@@H]2C1=O` [tadalafil], in data set [3] (following a single dose), the “mean time (Tmax)” value was “about 2 h”. For the same molecule, the absolute bioavailability in data set [3] (oral administration) is recorded as at most 80%. Moreover, in data set [3], the half-life result is on record as “about 17.5 h”.

`CCCc1nn(C)c2c(=O)[nH]c(-c3cc(S(=O)(=O)N4CCN(C)CC4)ccc3OCC)nc12` [sildenafil]: the aqueous solubility in data set [6] (sildenafil, pHmax 4.2) was found to be 3540 µg/mL (≈ 7.46 mM). Besides, the solubility is under 5000 µg/mL in data set [6] (pH 4, aqueous buffer, read-out: aqueous saturated solubility) and 3340 µg/mL (≈ 7.04 mM) in data set [6] (pH 4.55, aqueous buffer, read-out: aqueous solubility). In data set [3] (oral administration), the absolute bioavailability entry is given as “about 41%”. Besides, the “mean time (Tmax)” value in data set [3] (oral administration) is “about 60 min”. Also, the half-life entry in data set [3] is on record as “about 4 h”. The “log P” value in data set [4] is reported as 2.7. Further, in data set [4] (vardenafil: 7.15 mostly basic, 9.86 mostly acidic), the pKa was 7.2. The results for the solubility in water result in data set [5] (pH 3-4), in data set [5] (pH 5) and in data set [5] (pH 7) were “about 7.0 mg/ml”, about 2100 µg/mL (≈ 4.42 mM) and about 30 µg/mL (≈ 0.0632 mM), respectively.

`CCCc1nc(C)c2c(=O)[nH]c(-c3cc(S(=O)(=O)N4CCNCC4)ccc3OCC)nn12` [MI metabolite]: in data set [3] (metabolite of vardenafil), the “share of total pharmacologic activity” value is on record as “about 7%”.

For orientation: solubility means the dissolved amount per volume that the medium holds. As usually defined, the log P is the decadic logarithm of the partition coefficient of the neutral form, usually between octanol and water. One may read the aqueous solubility as how much of the substance goes into solution per volume. The pKa is the pH at which an ionisable group is half protonated.

The values above are taken from US20240216383A1, “FORMULATIONS AND METHODS FOR TREATING ERECTILE DYSFUNCTION” (Strategic Drug Solutions, Inc., priority 2020, published 2024).
